{"source": "the NIST ThermoML archive (doi:10.1016/j.fluid.2014.09.014)", "experiment": "refractive index (other wavelength) (dimensionless); xn = mol fraction of the nth substance listed", "conditions": "313.15 K, 101 kPa, Liquid, Standard Abbe refractometry", "note": "Numbers after ± are expanded uncertainties."}
{"smiles": "CC(C)OC(C)C", "note": "[diisopropyl ether] + CO", "values": [{"measurement": "refractive index", "setting": "Wavelength=587.6 nm, x2 = 0.5543", "value": "1.3516 ± 0.00035"}, {"measurement": "refractive index", "setting": "Wavelength=587.6 nm, x2 = 0.609", "value": "1.34934 ± 0.00034"}, {"measurement": "refractive index", "setting": "Wavelength=587.6 nm, x2 = 0.6529", "value": "1.34786 ± 0.00034"}, {"measurement": "refractive index", "setting": "Wavelength=587.6 nm, x2 = 0.7504", "value": "1.34401 ± 0.00033"}, {"measurement": "refractive index", "setting": "Wavelength=587.6 nm, x2 = 0.804", "value": "1.33965 ± 0.00033"}, {"measurement": "refractive index", "setting": "Wavelength=587.6 nm, x2 = 0.807", "value": "1.33975 ± 0.00033"}, {"measurement": "refractive index", "setting": "Wavelength=587.6 nm, x2 = 0.8727", "value": "1.33626 ± 0.00032"}, {"measurement": "refractive index", "setting": "Wavelength=587.6 nm, x2 = 0.9233", "value": "1.3284 ± 0.00033"}, {"measurement": "refractive index", "setting": "Wavelength=587.6 nm, x2 = 0.9253", "value": "1.33006 ± 0.00032"}, {"measurement": "refractive index", "setting": "Wavelength=587.6 nm, x2 = 0.9527", "value": "1.32712 ± 0.00032"}, {"measurement": "refractive index", "setting": "Wavelength=587.6 nm, x2 = 0.9773", "value": "1.32383 ± 0.00032"}, {"measurement": "refractive index", "setting": "Wavelength=587.6 nm, x2 = 0.989", "value": "1.32263 ± 0.00032"}, {"measurement": "refractive index", "setting": "Wavelength=587.6 nm, x2 = 0.9964", "value": "1.32167 ± 0.00032"}, {"measurement": "refractive index", "setting": "Wavelength=589.3 nm, x2 = 0", "value": "1.35694 ± 0.00044"}, {"measurement": "refractive index", "setting": "Wavelength=589.3 nm, x2 = 0.0423", "value": "1.35688 ± 0.00043"}, {"measurement": "refractive index", "setting": "Wavelength=589.3 nm, x2 = 0.0424", "value": "1.3569 ± 0.00043"}, {"measurement": "refractive index", "setting": "Wavelength=589.3 nm, x2 = 0.082", "value": "1.35685 ± 0.00042"}, {"measurement": "refractive index", "setting": "Wavelength=589.3 nm, x2 = 0.0822", "value": "1.35704 ± 0.00042"}, {"measurement": "refractive index", "setting": "Wavelength=589.3 nm, x2 = 0.1171", "value": "1.3569 ± 0.00041"}, {"measurement": "refractive index", "setting": "Wavelength=589.3 nm, x2 = 0.1271", "value": "1.35691 ± 0.00041"}, {"measurement": "refractive index", "setting": "Wavelength=589.3 nm, x2 = 0.1827", "value": "1.35671 ± 0.0004"}, {"measurement": "refractive index", "setting": "Wavelength=589.3 nm, x2 = 0.2162", "value": "1.35656 ± 0.0004"}, {"measurement": "refractive index", "setting": "Wavelength=589.3 nm, x2 = 0.251", "value": "1.35622 ± 0.00039"}, {"measurement": "refractive index", "setting": "Wavelength=589.3 nm, x2 = 0.3298", "value": "1.35621 ± 0.00038"}, {"measurement": "refractive index", "setting": "Wavelength=589.3 nm, x2 = 0.3577", "value": "1.3559 ± 0.00038"}, {"measurement": "refractive index", "setting": "Wavelength=589.3 nm, x2 = 0.4497", "value": "1.35414 ± 0.00037"}, {"measurement": "refractive index", "setting": "Wavelength=589.3 nm, x2 = 0.4525", "value": "1.35454 ± 0.00037"}, {"measurement": "refractive index", "setting": "Wavelength=589.3 nm, x2 = 0.522", "value": "1.35241 ± 0.00035"}, {"measurement": "refractive index", "setting": "Wavelength=589.3 nm, x2 = 0.5543", "value": "1.35155 ± 0.00035"}, {"measurement": "refractive index", "setting": "Wavelength=589.3 nm, x2 = 0.609", "value": "1.34929 ± 0.00034"}, {"measurement": "refractive index", "setting": "Wavelength=589.3 nm, x2 = 0.6529", "value": "1.34781 ± 0.00034"}, {"measurement": "refractive index", "setting": "Wavelength=589.3 nm, x2 = 0.7504", "value": "1.34396 ± 0.00033"}, {"measurement": "refractive index", "setting": "Wavelength=589.3 nm, x2 = 0.804", "value": "1.3396 ± 0.00035"}, {"measurement": "refractive index", "setting": "Wavelength=589.3 nm, x2 = 0.807", "value": "1.3409 ± 0.00033"}, {"measurement": "refractive index", "setting": "Wavelength=589.3 nm, x2 = 0.8727", "value": "1.33609 ± 0.00032"}, {"measurement": "refractive index", "setting": "Wavelength=589.3 nm, x2 = 0.9233", "value": "1.32835 ± 0.00033"}, {"measurement": "refractive index", "setting": "Wavelength=589.3 nm, x2 = 0.9253", "value": "1.33001 ± 0.00032"}, {"measurement": "refractive index", "setting": "Wavelength=589.3 nm, x2 = 0.9527", "value": "1.32708 ± 0.00032"}, {"measurement": "refractive index", "setting": "Wavelength=589.3 nm, x2 = 0.9773", "value": "1.32378 ± 0.00032"}, {"measurement": "refractive index", "setting": "Wavelength=589.3 nm, x2 = 0.989", "value": "1.32259 ± 0.00032"}, {"measurement": "refractive index", "setting": "Wavelength=589.3 nm, x2 = 0.9964", "value": "1.32163 ± 0.00032"}, {"measurement": "refractive index", "setting": "Wavelength=632.8 nm, x2 = 0", "value": "1.35572 ± 0.00043"}, {"measurement": "refractive index", "setting": "Wavelength=632.8 nm, x2 = 0.0423", "value": "1.35563 ± 0.00043"}, {"measurement": "refractive index", "setting": "Wavelength=632.8 nm, x2 = 0.0424", "value": "1.35568 ± 0.00043"}, {"measurement": "refractive index", "setting": "Wavelength=632.8 nm, x2 = 0.082", "value": "1.35562 ± 0.00042"}, {"measurement": "refractive index", "setting": "Wavelength=632.8 nm, x2 = 0.0822", "value": "1.35581 ± 0.00042"}, {"measurement": "refractive index", "setting": "Wavelength=632.8 nm, x2 = 0.1171", "value": "1.35567 ± 0.00041"}, {"measurement": "refractive index", "setting": "Wavelength=632.8 nm, x2 = 0.1271", "value": "1.35566 ± 0.00041"}, {"measurement": "refractive index", "setting": "Wavelength=632.8 nm, x2 = 0.1827", "value": "1.35548 ± 0.0004"}, {"measurement": "refractive index", "setting": "Wavelength=632.8 nm, x2 = 0.2162", "value": "1.35535 ± 0.0004"}, {"measurement": "refractive index", "setting": "Wavelength=632.8 nm, x2 = 0.251", "value": "1.35489 ± 0.00039"}, {"measurement": "refractive index", "setting": "Wavelength=632.8 nm, x2 = 0.3298", "value": "1.35494 ± 0.00038"}, {"measurement": "refractive index", "setting": "Wavelength=632.8 nm, x2 = 0.3577", "value": "1.35417 ± 0.00038"}, {"measurement": "refractive index", "setting": "Wavelength=632.8 nm, x2 = 0.4497", "value": "1.35292 ± 0.00037"}, {"measurement": "refractive index", "setting": "Wavelength=632.8 nm, x2 = 0.4525", "value": "1.35331 ± 0.00037"}, {"measurement": "refractive index", "setting": "Wavelength=632.8 nm, x2 = 0.522", "value": "1.3512 ± 0.00035"}, {"measurement": "refractive index", "setting": "Wavelength=632.8 nm, x2 = 0.5543", "value": "1.35036 ± 0.00035"}, {"measurement": "refractive index", "setting": "Wavelength=632.8 nm, x2 = 0.609", "value": "1.3481 ± 0.00034"}, {"measurement": "refractive index", "setting": "Wavelength=632.8 nm, x2 = 0.6529", "value": "1.34667 ± 0.00034"}, {"measurement": "refractive index", "setting": "Wavelength=632.8 nm, x2 = 0.7504", "value": "1.34279 ± 0.00033"}, {"measurement": "refractive index", "setting": "Wavelength=632.8 nm, x2 = 0.804", "value": "1.33846 ± 0.00033"}, {"measurement": "refractive index", "setting": "Wavelength=632.8 nm, x2 = 0.807", "value": "1.33854 ± 0.00033"}, {"measurement": "refractive index", "setting": "Wavelength=632.8 nm, x2 = 0.8727", "value": "1.33509 ± 0.00032"}, {"measurement": "refractive index", "setting": "Wavelength=632.8 nm, x2 = 0.9233", "value": "1.32726 ± 0.00033"}, {"measurement": "refractive index", "setting": "Wavelength=632.8 nm, x2 = 0.9253", "value": "1.32891 ± 0.00032"}, {"measurement": "refractive index", "setting": "Wavelength=632.8 nm, x2 = 0.9527", "value": "1.32598 ± 0.00032"}, {"measurement": "refractive index", "setting": "Wavelength=632.8 nm, x2 = 0.9773", "value": "1.32372 ± 0.00032"}, {"measurement": "refractive index", "setting": "Wavelength=632.8 nm, x2 = 0.989", "value": "1.32154 ± 0.00032"}, {"measurement": "refractive index", "setting": "Wavelength=632.8 nm, x2 = 0.9964", "value": "1.32058 ± 0.00032"}, {"measurement": "refractive index", "setting": "Wavelength=644 nm, x2 = 0", "value": "1.35543 ± 0.00043"}, {"measurement": "refractive index", "setting": "Wavelength=644 nm, x2 = 0.0423", "value": "1.35534 ± 0.00043"}, {"measurement": "refractive index", "setting": "Wavelength=644 nm, x2 = 0.0424", "value": "1.3554 ± 0.00043"}, {"measurement": "refractive index", "setting": "Wavelength=644 nm, x2 = 0.082", "value": "1.35532 ± 0.00042"}, {"measurement": "refractive index", "setting": "Wavelength=644 nm, x2 = 0.0822", "value": "1.35552 ± 0.00042"}, {"measurement": "refractive index", "setting": "Wavelength=644 nm, x2 = 0.1171", "value": "1.35538 ± 0.00041"}, {"measurement": "refractive index", "setting": "Wavelength=644 nm, x2 = 0.1271", "value": "1.35538 ± 0.00041"}, {"measurement": "refractive index", "setting": "Wavelength=644 nm, x2 = 0.1827", "value": "1.35518 ± 0.0004"}, {"measurement": "refractive index", "setting": "Wavelength=644 nm, x2 = 0.2162", "value": "1.35505 ± 0.0004"}, {"measurement": "refractive index", "setting": "Wavelength=644 nm, x2 = 0.251", "value": "1.3546 ± 0.00039"}, {"measurement": "refractive index", "setting": "Wavelength=644 nm, x2 = 0.3298", "value": "1.35463 ± 0.00038"}, {"measurement": "refractive index", "setting": "Wavelength=644 nm, x2 = 0.3577", "value": "1.35388 ± 0.00038"}, {"measurement": "refractive index", "setting": "Wavelength=644 nm, x2 = 0.4497", "value": "1.35264 ± 0.00037"}, {"measurement": "refractive index", "setting": "Wavelength=644 nm, x2 = 0.4525", "value": "1.35302 ± 0.00037"}, {"measurement": "refractive index", "setting": "Wavelength=644 nm, x2 = 0.522", "value": "1.35091 ± 0.00035"}, {"measurement": "refractive index", "setting": "Wavelength=644 nm, x2 = 0.5543", "value": "1.35008 ± 0.00035"}, {"measurement": "refractive index", "setting": "Wavelength=644 nm, x2 = 0.609", "value": "1.34783 ± 0.00034"}, {"measurement": "refractive index", "setting": "Wavelength=644 nm, x2 = 0.6529", "value": "1.34638 ± 0.00034"}, {"measurement": "refractive index", "setting": "Wavelength=644 nm, x2 = 0.7504", "value": "1.34252 ± 0.00033"}, {"measurement": "refractive index", "setting": "Wavelength=644 nm, x2 = 0.804", "value": "1.33821 ± 0.00033"}, {"measurement": "refractive index", "setting": "Wavelength=644 nm, x2 = 0.807", "value": "1.33829 ± 0.00033"}, {"measurement": "refractive index", "setting": "Wavelength=644 nm, x2 = 0.8727", "value": "1.33482 ± 0.00032"}, {"measurement": "refractive index", "setting": "Wavelength=644 nm, x2 = 0.9233", "value": "1.32702 ± 0.00033"}, {"measurement": "refractive index", "setting": "Wavelength=644 nm, x2 = 0.9253", "value": "1.32867 ± 0.00032"}]}
